{
  "source": "patent US20080166323A1",
  "about": "“Activators of Hexosamine Biosynthesis as Inhibitors of Injury Induced by Ischemia or Hermorrhagic Shock” (UAB RESEARCH FOUNDATION, priority 2004, published 2008)",
  "key": {"[1]": {"tested_on": "UDP-GlcNAc", "test": "UDP-GlcNAc pools in isolated hearts", "details": "5 mM", "method": "In the experiments above with isolated hearts, glucosamine was protective after only a ten minute pre-incubation. While not wishing to be bound by theory, the mechanism believed to be responsible for the protection is an increase in concentration of an intracellular metabolite of the HBP, which results in an increase in protein-associated O-GlcNAc. […] Increases at ten minutes were 47%. With respect to the second point, experiments were performed in which a monoclonal antibody specific for O-GlcNAc on proteins (CTD110) (Corner, et al, Anal Biochem (2001) 293(2):169-177) was used in an immunoblotting protocol. The specificity of this antibody for O-GlcNAc-containing epitopes is verified in each experiment by the inclusion of 10 mM GlcNAc along with the CTD110 antibody on parallel samples. These samples show no staining (data not shown). CTD110 immunoblots were performed on extracts from isolated hearts following a ten-minute perfusion with buffer or buffer containing 5 mM glucosamine (FIG. 8). […] Intriguingly, one group of newly appearing proteins has molecular masses near 70 kDa and another around 90 kDa. […] Another family of heat shock proteins, HSP-90, has a molecular mass near 90 kDa (Nollen and Morimoto, J Cell Sci (2002) 115(Pt 14):2809-2816). Thus, O-GlcNAc bearing proteins appear to be responsible for the protection."}, "[2]": {"tested_on": "perfused hearts", "test": "calcium paradox in perfused hearts (Langendorff)", "parameters": "species or system rat", "details": "5-minute pretreatment of control hearts", "method": "The effect of short-term hyperglycemia (2-5 days) on the calcium paradox was explored. The protocol (a 30-minute stabilization after hanging the heart on a Langendorff apparatus, a Ca^2+-free buffer for 10 min, a buffer containing 1.25 mM Ca^2+ buffer for 15 min) was initially applied to perfused hearts from control rats. When calcium was removed from the perfusate, the heart gradually ceased beating (FIG. 2A), although no protein loss from the heart was detected (FIG. 3C). […] The decrease in left ventricular […] pressure (LVDP) and an elevation in end diastolic pressure (EDP), as well as protein loss and blanching signaled the transition to a “stone heart” (Zimmerman, Cardiovasc Res (2000) 45(1):119-121) in hearts from all control animals examined.\nAzaserine (AZA), the inhibitor of GFAT and HBP flux (Marshall, et al., J Biol Chem (1991) 266(8):4706-4712), negated the effects of hyperglycemia, restoring sensitivity to the paradox in 3 of 7 hearts (FIG. 2B). […] This decreased somewhat the protection seen with hyperglycemia, but made the reversal seen with azaserine more pronounced (FIGS. 2B and 3).\nTo confirm the involvement of the HBP in the protection due to hyperglycemia, a complementary series of experiments at a final Ca^2+ concentration of 1.25 mM were performed.\nAn independent mechanism of increasing metabolites in the HBP is to provide the heart with free fatty acids (Hawkins, et al., J Clin Invest (1997) 99(9):2173-2182). This occurs because of the “glucose-sparing” effect, a rapid block on the entry of glucose into the glycolytic pathway because of an inhibition of phosphofructokinase. […] In addition, SKF96365 (also known as 1-[β-[3-(4-methoxyphenyl)propoxy]-4-methoxyphenethyl]-1H-imidazole, HCl; available from Calbiochem, San Diego, Calif.) as an independent means of blocking the channels responsible for CCE was utilized (Putney, Capacitative Calcium Entry (1997) Austin: Landes Biomedical). This too was at least partially effective in 4 of 6 animals (FIG. 4)."}},
  "data": [
    {"molecule": "N[C@H]1C(O)O[C@H](CO)[C@@H](O)[C@@H]1O", "note": "(some centres unmarked) [glucosamine]", "values": [
      {"measurement": "increase in UDP-GlcNAc pools", "setting": "[1]; 30 minute incubation", "result": "about 75%"},
      {"measurement": "increase in UDP-GlcNAc pools", "setting": "[1]; ten minutes", "result": 47, "unit": "%"},
      {"measurement": "function prior to calcium removal", "setting": "[2]", "result": "did not alter function"},
      {"measurement": "hearts with significant protection following calcium readdition", "setting": "[2]; final Ca2+ 1.25 mM", "result": "7 of 7"},
      {"measurement": "Protein loss inhibited", "setting": "[2]; final Ca2+ 1.25 mM, data not shown", "result": 88, "unit": "%"}
    ]}
  ]
}
